In patent EP2276483B1, “SOLID FORMS COMPRISING (+)-2-[1-(3-ETHOXY-4-METHOXYPHENYL)-2-METHYLSULFONYLETHYL]-4-ACETYLAMINOISOINDOLINE-1,3-DIONE, COMPOSITIONS THEREOF, AND USES THEREOF” (CELGENE CORPORATION, priority 2008, dated 2009):
In brackets after ≈: the same amount, converted by molar mass.

Columns and labels:
[1] = target: T1, PDE5 from human platelets (Homo sapiens, UniProt O76074); experiment: PDE5 enzyme assay; format: biochemical; settings: for PDE Specificity Ratio PDE4/PDE5: from above data
T1 construct: PDE5 from human platelets; from tissue; host or cells: human platelets

human PDE2 = human PDE2 (Homo sapiens, UniProt O00408); experiment: PDE2 enzyme assay; format: biochemical; settings: for PDE Specificity Ratio PDE4/PDE2: from above data
Chain of human PDE2 (O00408 whole entry): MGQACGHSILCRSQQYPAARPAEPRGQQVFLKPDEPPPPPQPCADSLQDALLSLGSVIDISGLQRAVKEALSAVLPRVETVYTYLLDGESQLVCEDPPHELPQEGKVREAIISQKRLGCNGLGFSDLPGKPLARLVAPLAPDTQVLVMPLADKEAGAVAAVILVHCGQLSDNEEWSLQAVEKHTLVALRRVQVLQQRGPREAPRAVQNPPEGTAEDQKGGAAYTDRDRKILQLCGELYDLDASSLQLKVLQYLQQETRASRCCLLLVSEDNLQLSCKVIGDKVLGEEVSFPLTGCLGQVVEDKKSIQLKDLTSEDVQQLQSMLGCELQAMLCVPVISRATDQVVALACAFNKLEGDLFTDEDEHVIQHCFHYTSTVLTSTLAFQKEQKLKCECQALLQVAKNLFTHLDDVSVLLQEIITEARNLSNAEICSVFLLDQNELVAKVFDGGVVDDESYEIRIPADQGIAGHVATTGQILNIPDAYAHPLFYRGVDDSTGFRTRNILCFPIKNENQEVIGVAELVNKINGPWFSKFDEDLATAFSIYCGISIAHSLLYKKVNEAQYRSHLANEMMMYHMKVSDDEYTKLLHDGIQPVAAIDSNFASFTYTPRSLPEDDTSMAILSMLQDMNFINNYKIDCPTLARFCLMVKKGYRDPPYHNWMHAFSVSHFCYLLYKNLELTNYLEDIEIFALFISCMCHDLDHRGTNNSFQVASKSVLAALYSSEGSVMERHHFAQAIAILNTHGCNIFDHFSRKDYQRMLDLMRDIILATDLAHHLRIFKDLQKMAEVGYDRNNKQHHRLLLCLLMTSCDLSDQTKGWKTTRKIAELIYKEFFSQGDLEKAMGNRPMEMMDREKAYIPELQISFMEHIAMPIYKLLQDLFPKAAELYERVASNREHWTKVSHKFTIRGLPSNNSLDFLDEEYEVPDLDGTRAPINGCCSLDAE

cAMP [2] = experiment: PGE2-induced cAMP elevation in human neutrophils; format: cell-based; settings: Neutrophil
Description: (§1) Prostaglandin E2 (PGE2) binds to prostanoid receptors on monocytes, T cells and other leukocytes and consequently elevates intracellular cAMP levels, resulting in inhibition of cellular responses. The combination of PGE2 and a PDE4 inhibitor synergistically elevates cAMP levels in these cell types, and the elevation of cAMP in PBMC caused by PDE4 inhibitors in the presence of PGE2 is proportional to the inhibitory activity of that PDE4 inhibitor. Intracellular cAMP was measured in human PBMC as follows. PBMC were isolated as described above and plated in 96-well plates at 1 x 10^6 cells per well in RPMI-1640. The cells were pre-treated with compounds at 100, 10, 1, 0.1, 0.01, and 0 µM in a final concentration of 2% DMSO in duplicate at 37°C in a humidified incubator at 5% CO2 for one hour. The cells were then stimulated with PGE2 (10µM) (Sigma) for 1h. The cells were lysed with HCl, 0.1 N final concentration to inhibit phosphodiesterase activity and the plates were frozen at -20°C. The cAMP produced was measured using cAMP (low pH) Immunoassay kit (R&D Systems).
Elevation of cAMP in human neutrophils was measured as follows. PBMC were removed from source leukocytes (Sera-Tec Biologicals) by centrifugation on Ficoll-Paque Plus (Amersham Pharmacia). […]

[3] = target: PDE7 purified from Hut78 human T cells (Homo sapiens, UniProt Q13946); experiment: PDE7 enzyme assay; format: biochemical
Chain of PDE7 purified from Hut78 human T cells (Q13946 whole entry): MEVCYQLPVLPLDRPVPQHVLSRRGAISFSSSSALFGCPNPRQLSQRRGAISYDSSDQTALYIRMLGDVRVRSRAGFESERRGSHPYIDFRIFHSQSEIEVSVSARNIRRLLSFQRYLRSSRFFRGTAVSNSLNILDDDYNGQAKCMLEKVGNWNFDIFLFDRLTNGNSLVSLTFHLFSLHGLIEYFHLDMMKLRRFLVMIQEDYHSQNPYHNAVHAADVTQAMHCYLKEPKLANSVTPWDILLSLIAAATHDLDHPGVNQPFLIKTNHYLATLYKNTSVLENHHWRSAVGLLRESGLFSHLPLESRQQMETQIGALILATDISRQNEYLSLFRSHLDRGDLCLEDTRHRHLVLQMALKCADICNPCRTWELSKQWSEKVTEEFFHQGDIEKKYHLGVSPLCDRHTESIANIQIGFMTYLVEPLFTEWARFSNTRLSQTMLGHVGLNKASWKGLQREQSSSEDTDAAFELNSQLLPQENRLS
Description: PDE7 is a cAMP-selective PDE expressed mainly in T cells and in skeletal muscle. T cell-derived cytokines such as IL-2 and IFN-γ are potentially regulatable via PDE7 inhibition. […] Compounds were tested against the PDE7 preparation in the presence of 10 nM cAMP as described for PDE4 in Table 1.

[4] = Aqueous equilibrium solubility in pH 7.4 buffer; format: physicochemical; settings: thermodynamic from solid; pH 7.4 aqueous buffer, room temperature; read-out: Measured solubility
Description: Equilibrium solubilities were measured in pH 7.4 aqueous buffer. The pH 7.4 buffer was prepared by adjusting the pH of a 0.07 M NaH2PO4 solution to 7.4 with 10 N NaOH. The ionic strength of the solution was 0.15. At least 1 mg of powder was combined with 1 ml of buffer to make >1 mg/ml mixture. These samples were shaken for >2 hours and left to stand overnight at room temperature. The samples were then filtered through a 0.45-µm Nylon syringe filter that was first saturated with the sample. The filtrate was sampled twice, consecutively. The filtrate was assayed by HPLC against standards prepared in 50% methanol.

PDE4 (from U937 cells) = experiment: PDE4 (U937 cell-derived) enzyme assay; format: biochemical, human; settings: 1 µM cAMP
Description: PDE4 enzyme was purified from U937 human monocytic cells by gel filtration chromatography as previously described (Muller et al., 1998, Bioorg. & Med. Chem. Lett. 8:2669-2674). Phosphodiesterase reactions were carried out in 50 mM Tris HCl pH 7.5, 5 mM MgCl2, 1 µM cAMP, 10 nM [^3H]-cAMP for 30 min at 30°C, terminated by boiling, treated with 1 mg/ml snake venom, and separated using AG-1XS ion exchange resin (BioRad) as described (Muller et al., 1998, Bioorg. & Med. Chem. Lett. 8:2669-2674). Reactions consumed less than 15% of available substrate. Table 1. PDE Specificity

[5] = target: PDE3 from human platelets (Homo sapiens, UniProt Q14432); experiment: PDE3 enzyme assay; format: biochemical; settings: for PDE Specificity Ratio PDE4/PDE3: from above data
Chain of PDE3 from human platelets (Q14432 whole entry): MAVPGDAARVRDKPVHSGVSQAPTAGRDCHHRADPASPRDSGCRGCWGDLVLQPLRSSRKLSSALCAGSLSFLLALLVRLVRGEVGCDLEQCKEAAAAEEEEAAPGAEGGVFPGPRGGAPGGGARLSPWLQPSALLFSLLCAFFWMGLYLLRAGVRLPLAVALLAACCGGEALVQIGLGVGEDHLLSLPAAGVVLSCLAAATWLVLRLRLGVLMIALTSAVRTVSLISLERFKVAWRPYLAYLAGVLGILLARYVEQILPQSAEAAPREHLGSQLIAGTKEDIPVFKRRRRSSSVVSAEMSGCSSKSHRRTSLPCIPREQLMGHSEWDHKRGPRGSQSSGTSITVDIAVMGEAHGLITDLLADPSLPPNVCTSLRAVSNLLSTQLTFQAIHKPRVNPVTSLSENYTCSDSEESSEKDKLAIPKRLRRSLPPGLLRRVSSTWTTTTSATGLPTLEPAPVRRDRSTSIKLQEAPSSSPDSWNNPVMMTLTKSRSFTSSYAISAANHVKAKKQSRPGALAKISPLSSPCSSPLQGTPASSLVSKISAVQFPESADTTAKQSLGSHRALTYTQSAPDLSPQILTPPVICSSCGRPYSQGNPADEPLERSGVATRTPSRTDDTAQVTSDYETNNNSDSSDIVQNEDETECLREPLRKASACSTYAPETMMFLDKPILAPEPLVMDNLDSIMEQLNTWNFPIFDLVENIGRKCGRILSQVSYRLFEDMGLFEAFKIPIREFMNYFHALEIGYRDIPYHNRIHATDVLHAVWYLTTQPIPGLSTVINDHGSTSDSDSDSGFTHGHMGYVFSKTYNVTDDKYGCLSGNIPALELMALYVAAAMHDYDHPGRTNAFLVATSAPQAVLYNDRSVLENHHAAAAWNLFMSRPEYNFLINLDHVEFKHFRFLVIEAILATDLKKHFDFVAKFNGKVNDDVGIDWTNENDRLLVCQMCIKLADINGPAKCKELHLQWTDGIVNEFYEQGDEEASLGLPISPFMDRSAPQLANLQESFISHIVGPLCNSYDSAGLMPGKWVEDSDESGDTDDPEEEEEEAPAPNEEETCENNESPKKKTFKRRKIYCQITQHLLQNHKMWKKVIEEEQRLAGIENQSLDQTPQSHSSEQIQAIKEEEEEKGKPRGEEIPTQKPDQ

LTB4 = experiment: fMLF-induced LTB4 production in neutrophils; format: cell-based; settings: Neutrophil; human neutrophils; 1 µM fMLF
Description: N-formyl-methionine-leucine-phenylalanine (fMLF) is a bacterially derived peptide that activates neutrophils to rapidly degranulate, migrate, adhere to endothelial cells, and release leukotriene LTB4, a product of arachidonic acid metabolism and itself a neutrophil chemoattractant. Compounds were tested for the ability to block fMLF-induced neutrophil LTB4 production as previously described (Hatzelmann and Schudt, 2001, J. Pharm. Exp. Ther., 297:267-279), with the following modifications. Neutrophils were isolated as described above and resuspended in phosphate-buffered saline without calcium or magnesium (BioWhittaker) containing 10 mM HEPES pH 7.2 and plated in 96-well tissue culture plates at a concentration of 1.7 x 10^6 cells/well. Cells were treated with 50 µM thimerosal (Sigma)/1 mM CaCl2/1 mM MgCl2 for 15 minutes at 37°C 5% CO2, then treated with compounds at 1000, 200, 40, 8, 1.6, 0.32, 0.064, and 0 nM in a final DMSO concentration of 0.01 % in duplicate for 10 minutes. Neutrophils were stimulated with 1 µM fMLF for 30 minutes, then lysed by the addition of methanol (20% final concentration) and frozen in a dry ice/isopropanol bath for 10 minutes. Lysates were stored at -70°C until the LTB4 content was measured by competitive LTB4 ELISA (R&D Systems).

cAMP [6] = experiment: PGE2-induced cAMP elevation in human PBMC; format: cell-based; settings: PGE2 (10µM)
Description: as §1

bovine PDE1 = experiment: PDE1 enzyme assay; format: biochemical; settings: for PDE Specificity Ratio PDE4/PDE1: from above data
[7] = target: T2, PDE6 from bovine retinal rod outer segments (Bos taurus, UniProt P11541+P23439); experiment: PDE6 enzyme assay; format: biochemical
T2 construct: PDE6 from bovine retinal rod outer segments; from tissue; host or cells: bovine retinal rod outer segments
T2 sequence (P11541 2-856 limits assumed): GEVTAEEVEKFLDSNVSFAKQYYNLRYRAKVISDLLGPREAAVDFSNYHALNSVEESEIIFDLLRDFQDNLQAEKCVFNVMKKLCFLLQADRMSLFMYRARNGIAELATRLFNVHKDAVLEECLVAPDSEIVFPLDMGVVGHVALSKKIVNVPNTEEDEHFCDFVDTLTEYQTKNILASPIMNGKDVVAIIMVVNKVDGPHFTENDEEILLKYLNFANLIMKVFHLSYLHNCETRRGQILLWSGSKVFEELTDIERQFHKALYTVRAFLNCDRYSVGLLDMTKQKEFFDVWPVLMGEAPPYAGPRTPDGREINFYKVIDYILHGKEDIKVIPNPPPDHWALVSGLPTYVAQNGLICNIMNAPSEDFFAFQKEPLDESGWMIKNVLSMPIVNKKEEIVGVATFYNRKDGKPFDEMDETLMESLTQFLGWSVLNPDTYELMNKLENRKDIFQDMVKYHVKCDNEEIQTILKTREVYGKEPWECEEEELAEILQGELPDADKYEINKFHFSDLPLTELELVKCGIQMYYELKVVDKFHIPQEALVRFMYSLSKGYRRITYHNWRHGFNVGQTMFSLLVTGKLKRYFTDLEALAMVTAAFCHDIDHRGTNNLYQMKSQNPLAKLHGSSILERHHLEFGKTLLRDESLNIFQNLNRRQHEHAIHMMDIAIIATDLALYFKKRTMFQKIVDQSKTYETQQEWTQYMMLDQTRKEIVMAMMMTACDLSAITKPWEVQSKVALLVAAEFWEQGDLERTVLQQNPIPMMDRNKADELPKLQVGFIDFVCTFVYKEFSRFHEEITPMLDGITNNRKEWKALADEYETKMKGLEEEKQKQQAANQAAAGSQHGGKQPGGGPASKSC
T2 sequence (P23439 2-850 limits assumed): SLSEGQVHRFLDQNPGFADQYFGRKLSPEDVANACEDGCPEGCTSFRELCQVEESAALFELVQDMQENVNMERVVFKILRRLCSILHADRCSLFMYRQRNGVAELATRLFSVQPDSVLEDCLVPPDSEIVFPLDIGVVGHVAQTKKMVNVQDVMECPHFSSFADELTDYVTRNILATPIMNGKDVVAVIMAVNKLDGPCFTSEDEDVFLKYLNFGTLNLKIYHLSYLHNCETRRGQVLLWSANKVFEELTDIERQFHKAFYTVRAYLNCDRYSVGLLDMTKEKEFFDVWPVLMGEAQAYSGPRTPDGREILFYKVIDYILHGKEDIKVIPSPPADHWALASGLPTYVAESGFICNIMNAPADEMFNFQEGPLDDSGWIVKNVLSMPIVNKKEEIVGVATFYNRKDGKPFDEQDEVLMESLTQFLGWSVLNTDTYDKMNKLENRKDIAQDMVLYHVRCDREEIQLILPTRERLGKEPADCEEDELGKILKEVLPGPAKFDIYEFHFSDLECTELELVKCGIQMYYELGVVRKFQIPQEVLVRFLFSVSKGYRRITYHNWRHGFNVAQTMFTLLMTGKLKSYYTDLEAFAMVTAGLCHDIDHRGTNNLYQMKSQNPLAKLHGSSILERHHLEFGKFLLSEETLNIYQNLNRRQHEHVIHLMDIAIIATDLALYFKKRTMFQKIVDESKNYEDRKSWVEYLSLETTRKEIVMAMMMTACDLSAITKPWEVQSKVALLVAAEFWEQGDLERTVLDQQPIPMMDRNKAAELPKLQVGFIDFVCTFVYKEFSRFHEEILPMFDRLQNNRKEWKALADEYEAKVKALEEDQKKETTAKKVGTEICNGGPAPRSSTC

SMILES	PDE Specificity Ratio PDE4/PDE5 [1]	inhibition at 10 µM ([1]; read-out: PDE5 (% inhib at 10 µM))	PDE Specificity Ratio PDE4/PDE2 (human PDE2)	inhibition at 10 µM (human PDE2; read-out: PDE2(% inhib at 10 µM))	EC50 (cAMP [2])	IC50 ([3]; 10 nM cAMP)	PDE Specificity Ratio PDE7 IC50/PDE4 IC50 ([3]; from above data)	solubility [4]	IC50 (PDE4 (from U937 cells))	PDE Specificity Ratio PDE4/PDE3 [5]	inhibition at 10 µM ([5]; read-out: PDE3 (% inhib at 10 µM))	IC50 (LTB4)	EC50 (cAMP [6])	PDE1 (% inhib at 10 µM) (bovine PDE1)	PDE Specificity Ratio PDE4/PDE1 (bovine PDE1)	PDE5 (% inhib at 10 µM) ([1]; 10 µM)	PDE2(% inhib at 10 µM) (human PDE2; 10 µM)	PDE6 (% inhib at 10 µM) ([7]; 10 µM)	PDE Specificity Ratio PDE4/PDE6 ([7]; from above data)	PDE3 (% inhib at 10 µM) ([5]; 10 µM)
CCOc1cc(C(CS(C)(=O)=O)N2C(=O)c3cccc(NC(C)=O)c3C2=O)ccc1OC (racemic) [Racemic Compound, 2-[1-(3-Ethoxy-4-methoxyphenyl)-2-methylsulfonylethyl]-4-acetylaminoisoindoline-1,3-dione]	>12000 fold	3%	>800 fold	19%	12600 nM	22100 nM	270 fold	3.4 µg/mL (≈ 7.38 µM)	81.8 nM	>670 fold	21%	20.1 nM	3090 nM	9%	>2700 fold					
CCOc1cc([C@H](CS(C)(=O)=O)N2C(=O)c3cccc(NC(C)=O)c3C2=O)ccc1OC [Compound B]	>39000 fold		>260 fold						611 nM	>45 fold				27%	>50 fold	-9%	10%	10%	>250 fold	31%
